Measurements from article PMC5908784, “Extracellular loops 2 and 3 of the calcitonin receptor selectively modify agonist binding and efficacy” (Biochemical Pharmacology, 2018).
Changes are numbered by the printed parent chain. Where no end group is shown, it is not given here.

Assays:
Assay in all cases: Homologous whole cell competition binding
Details in all cases: homologous competition of 125I-sCT(8-32), whole cells, mean ± S.E.M., SEM
hCTR S292A = target: T1, hCTR S292A (Homo sapiens, UniProt P30988, S292A)
T1 construct: expressed in transfected cells
T1 sequence (P30988 25-474 S292A): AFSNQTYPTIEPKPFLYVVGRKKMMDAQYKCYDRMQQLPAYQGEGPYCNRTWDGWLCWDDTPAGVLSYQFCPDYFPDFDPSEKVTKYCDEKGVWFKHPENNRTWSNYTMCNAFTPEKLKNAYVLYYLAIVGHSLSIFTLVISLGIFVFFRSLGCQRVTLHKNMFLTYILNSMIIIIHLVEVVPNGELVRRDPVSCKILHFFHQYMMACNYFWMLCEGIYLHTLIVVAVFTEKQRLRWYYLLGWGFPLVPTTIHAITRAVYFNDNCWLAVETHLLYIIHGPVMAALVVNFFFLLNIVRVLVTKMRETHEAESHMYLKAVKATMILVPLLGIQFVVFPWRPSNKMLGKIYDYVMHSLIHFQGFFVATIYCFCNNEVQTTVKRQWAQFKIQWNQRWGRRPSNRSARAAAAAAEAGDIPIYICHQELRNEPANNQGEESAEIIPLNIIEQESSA
Summary of the method: (§1)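 Values are pKi, derived from IC50 of unlabelled sCT(8-32) displacing ^125I-sCT(8-32) (25–100 pM) from whole cells after overnight incubation at 4 °C. Specific binding was scaled between tracer-only total and 1 μM cold-peptide background.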

hCTR V358A = target: T2, hCTR V358A (Homo sapiens, UniProt P30988, V358A)
T2 construct: c-Myc (N); expressed in transfected cells
T2 sequence (P30988 25-474 V358A): T1 sequence (P30988 25-474 S292A) with A268S, V334A
Summary of the method: as §1

hCTR P360A = target: T3, hCTR P360A (Homo sapiens, UniProt P30988, P360A)
T3 construct: expressed in transfected cells
T3 sequence (P30988 25-474 P360A): T1 sequence (P30988 25-474 S292A) with A268S, P336A
Summary of the method: as §1

hCTR Y372A = target: T4, hCTR Y372A (Homo sapiens, UniProt P30988, Y372A)
T4 construct: c-Myc (N); expressed in transfected cells
T4 sequence (P30988 25-474 Y372A): T1 sequence (P30988 25-474 S292A) with A268S, Y348A
Summary of the method: as §1

Substance “VLGKLSQELHKLQTYPRTNTGSGTP-NH2 [sCT(8-32)]” has a Ki (hCTR S292A) of 0.0631 nM, a Ki (hCTR V358A) of 0.155 nM and a Ki (hCTR P360A) of 0.603 nM. It also gave a Ki (hCTR Y372A) of 0.141 nM.
